Laboratory results as given in patent publication US20260200920A1, “SUBSTITUTED AMINOPYRIDINE COMPOUNDS FOR USE AS AKT1 INHIBITORS” (Atavistik Bio, Inc., priority 2023, published 2026).

Columns and labels:
[1] = target: T1, human recombinant kinase full-length AKT1 E17K (Homo sapiens, UniProt P31749, E17K); test: AKT1 E17K kinase assay (TR-FRET, Lance); assay type: biochemical; settings: 0.6 nM AKT1 E17K, 50 nM Ulight-CREBtide, either 50 μM ATP or 2 mM ATP, 60 min at RT
T1 construct: Purified human recombinant kinase full-length AKT1 E17K was expressed in insect cells; made in house; host or cells: insect cells
T1 sequence (P31749 whole entry E17K): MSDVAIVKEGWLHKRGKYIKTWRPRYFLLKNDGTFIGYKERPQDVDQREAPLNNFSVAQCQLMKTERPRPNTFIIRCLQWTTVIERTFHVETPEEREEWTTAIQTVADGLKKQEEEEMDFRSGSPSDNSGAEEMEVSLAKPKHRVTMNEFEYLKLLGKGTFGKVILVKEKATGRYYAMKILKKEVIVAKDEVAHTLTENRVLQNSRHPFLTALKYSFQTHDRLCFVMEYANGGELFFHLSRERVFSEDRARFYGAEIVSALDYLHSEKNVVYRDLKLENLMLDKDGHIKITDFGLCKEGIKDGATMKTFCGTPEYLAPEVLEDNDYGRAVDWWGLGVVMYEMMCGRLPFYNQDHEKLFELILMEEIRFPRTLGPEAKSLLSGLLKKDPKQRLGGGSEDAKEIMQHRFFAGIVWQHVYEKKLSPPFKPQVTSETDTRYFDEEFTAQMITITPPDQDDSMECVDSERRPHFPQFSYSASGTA
Summary of the method: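 Full-length AKT1 E17K from insect cells, PDPK1-activated, at 0.6 nM with 50 nM Ulight-CREBtide and 50 μM or 2 mM ATP, pH 7.5, 1% DMSO. Enzyme and compound preincubated 15 min, reaction run 60 min at RT; Eu-anti-phospho-CREB (Ser133) TR-FRET 665/620 ratio, 10-point curve, IC50 by 4-parameter fit.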

[2] = target: T2, human recombinant kinase full-length wildtype AKT1 (Homo sapiens, UniProt P31749); test: AKT1 kinase assay (wildtype, TR-FRET, Lance); assay type: biochemical; settings: 0.6 nM wildtype AKT1, 50 nM Ulight-CREBtide, either 50 μM ATP or 2 mM ATP, 60 min at RT
T2 construct: Purified human recombinant kinase full-length wildtype AKT1 was expressed in insect cells; made in house; host or cells: insect cells
T2 sequence (P31749 whole entry): as the sequence (P31749 whole entry E17K) above, with K17E counted along it
Summary of the method: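 Insect-cell-expressed full-length human AKT1, PDPK1-activated (0.6 nM), preincubated with compound 15 min at RT, then reacted 60 min at RT with 50 nM ULight-CREBtide and 50 μM or 2 mM ATP (pH 7.5, 1% DMSO). Phospho-CREBtide read by Eu-anti-phospho-Ser133 TR-FRET (665/620 ratio); IC50 from 10-point 4-parameter fit.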

In the case of `Cc1nc(NC(=O)[C@H]2CC[C@H](C(=O)O)CC2)ccc1-n1c(-c2cccnc2N)nc2ccc(-c3ccccc3)cc21` [Compound I-127, (1r,4r)-4-((5-(2-(2-aminopyridin-3-yl)-6-phenyl-1H-benzo[d]imidazol-1-yl)-6-methylpyridin-2-yl)carbamoyl)cyclohexane-1-carboxylic acid], the IC50 [1] is reported as 0.5 to 2 µM and the IC50 [2] is reported as < 20 µM.
`Cc1nc(NC(=O)C2CCC(C)(C(=O)O)CC2)ccc1-n1c(-c2cccnc2N)nc2ccc(-c3ccccc3)nc21` (stereo not drawn) [Compound I-128, 4-((5-(2-(2-aminopyridin-3-yl)-5-phenyl-3H-imidazo[4,5-b]pyridin-3-yl)-6-methylpyridin-2-yl)carbamoyl)-1-methylcyclohexane-1-carboxylic acid] was tested, and the IC50 [1] was 0.5 to 2 µM and the IC50 [2] was < 20 µM.
For `Cc1nc(NC(=O)C2CCC(C(=O)O)C2)ccc1-n1c(-c2cccnc2N)nc2ccc(-c3ccccc3)nc21` (stereo not drawn) [Compound I-129, 3-((5-(2-(2-aminopyridin-3-yl)-5-phenyl-3H-imidazo[4,5-b]pyridin-3-yl)-6-methylpyridin-2-yl)carbamoyl)cyclopentane-1-carboxylic acid], the IC50 [1] was 0.5 to 2 µM and the IC50 [2] was < 20 µM.
For `Cc1nc(NC(=O)[C@H]2CC[C@H](C(=O)O)CC2)ccc1-n1c(-c2cccnc2N)nc2ccc(-c3ccccn3)cc21` [Compound I-130, (1r,4r)-4-((5-(2-(2-aminopyridin-3-yl)-6-(pyridin-2-yl)-1H-benzo[d]imidazol-1-yl)-6-methylpyridin-2-yl)carbamoyl)cyclohexane-1-carboxylic acid], the IC50 [1] was ≥ 2 µM and the IC50 [2] was < 20 µM.
In the case of `Cc1nc(NC[C@H]2CC[C@H](C(=O)O)CC2)ccc1-n1c(-c2cccnc2N)nc2ccc(-c3ccccc3)nc21` [Compound I-131, (1r,4r)-4-(((5-(2-(2-aminopyridin-3-yl)-5-phenyl-3H-imidazo[4,5-b]pyridin-3-yl)-6-methylpyridin-2-yl)amino)methyl)cyclohexane-1-carboxylic acid], the IC50 [1] is reported as 0.5 to 2 µM and the IC50 [2] is reported as < 20 µM.
For `Cc1nc(NC(=O)C2CCC(C(C)C(=O)O)C2)ccc1-n1c(-c2cccnc2N)nc2ccc(-c3ccccc3)nc21` (stereo not drawn) [Compound I-132, 2-(3-((5-(2-(2-aminopyridin-3-yl)-5-phenyl-3H-imidazo[4,5-b]pyridin-3-yl)-6-methylpyridin-2-yl)carbamoyl)cyclopentyl)propanoic acid], the IC50 [1] was 0.5 to 2 µM and the IC50 [2] was < 20 µM.
For `Cc1nc(-n2c(-c3cccnc3N)nc3ccc(-c4ccccn4)cc32)ccc1NC(=O)[C@H]1CC[C@H](C(=O)O)CC1` [Compound I-133, (1r,4r)-4-((6-(2-(2-aminopyridin-3-yl)-6-(pyridin-2-yl)-1H-benzo[d]imidazol-1-yl)-2-methylpyridin-3-yl)carbamoyl)cyclohexane-1-carboxylic acid], the IC50 [1] was ≥ 2 µM and the IC50 [2] was < 20 µM.
For `Cc1nc(N[C@H]2CC[C@@H](C(=O)O)CC2)ccc1-n1c(-c2cccnc2N)nc2ccc(-c3ccccc3)nc21` [Compound I-134, (1s,4s)-4-((5-(2-(2-aminopyridin-3-yl)-5-phenyl-3H-imidazo[4,5-b]pyridin-3-yl)-6-methylpyridin-2-yl)amino)cyclohexane-1-carboxylic acid], the IC50 [1] was 0.5 to 2 µM and the IC50 [2] was < 20 µM.
For `CC(C)(C(=O)O)C1CCN(Cc2ccc(-n3c(-c4cccnc4N)nc4ccc(-c5ccccc5)nc43)cn2)CC1` [Compound I-135, 2-(1-((5-(2-(2-aminopyridin-3-yl)-5-phenyl-3H-imidazo[4,5-b]pyridin-3-yl)pyridin-2-yl)methyl)piperidin-4-yl)-2-methylpropanoic acid], the IC50 [1] was ≥ 2 µM and the IC50 [2] was < 20 µM.
`Nc1ncccc1-c1nc2ccc(-c3ccccc3)nc2n1-c1ccc(CN2CC3(CC(C(=O)O)C3)C2)nc1` [Compound I-136, 2-((5-(2-(2-aminopyridin-3-yl)-5-phenyl-3H-imidazo[4,5-b]pyridin-3-yl)pyridin-2-yl)methyl)-2-azaspiro[3.3]heptane-6-carboxylic acid] was tested, and the IC50 [1] was 0.5 to 2 µM and the IC50 [2] was < 20 µM.
For `Nc1ncccc1-c1nc2ccc(-c3ccccc3)nc2n1-c1ccc(NCC2CC3(C2)CC(C(=O)O)C3)nc1` (stereo not drawn) [Compound I-137, 6-(((5-(2-(2-aminopyridin-3-yl)-5-phenyl-3H-imidazo[4,5-b]pyridin-3-yl)pyridin-2-yl)amino)methyl)spiro[3.3]heptane-2-carboxylic acid], the IC50 [1] was < 0.5 µM and the IC50 [2] was < 20 µM.
With `C[C@]1(C(=O)O)CC[C@H](CN2CC(c3ccc(-n4c(-c5cccnc5N)nc5ccc(-c6ccccc6)nc54)cc3)C2)CC1` [Compound I-138, (1r,4r)-4-((3-(4-(2-(2-aminopyridin-3-yl)-5-phenyl-3H-imidazo[4,5-b]pyridin-3-yl)phenyl)azetidin-1-yl)methyl)-1-methylcyclohexane-1-carboxylic acid] the IC50 [1] was < 0.5 µM and the IC50 [2] was < 20 µM.
For `Cc1cc(C2CN(C[C@H]3CC[C@H](C(=O)O)CC3)C2)ccc1-n1c(-c2cccnc2N)nc2ccc(-c3ccccc3)nc21` [Compound I-139, (1r,4r)-4-((3-(4-(2-(2-aminopyridin-3-yl)-5-phenyl-3H-imidazo[4,5-b]pyridin-3-yl)-3-methylphenyl)azetidin-1-yl)methyl)cyclohexane-1-carboxylic acid], the IC50 [1] was < 0.5 µM and the IC50 [2] was < 20 µM.
In the case of `NC(=O)C1CCC(CN2CC(c3ccc(-n4c(-c5cccnc5N)nc5ccc(-c6ccccc6)nc54)cc3)C2)CC1` (stereo not drawn) [Compound I-140, 4-((3-(4-(2-(2-aminopyridin-3-yl)-5-phenyl-3H-imidazo[4,5-b]pyridin-3-yl)phenyl)azetidin-1-yl)methyl)cyclohexane-1-carboxamide], the IC50 [1] is reported as 0.5 to 2 µM and the IC50 [2] is reported as < 20 µM.
In the case of `CNC(=O)[C@H]1CC[C@H](C(=O)Nc2ccc(-n3c(-c4cccnc4N)nc4ccc(-c5ccccc5)nc43)c(C)n2)CC1` [Compound I-141, (1r,4r)-N1-(5-(2-(2-aminopyridin-3-yl)-5-phenyl-3H-imidazo[4,5-b]pyridin-3-yl)-6-methylpyridin-2-yl)-N4-methylcyclohexane-1,4-dicarboxamide], the IC50 [1] is reported as 0.5 to 2 µM and the IC50 [2] is reported as < 20 µM.
In the case of `Cc1nc(NC(=O)[C@H]2CC[C@H](C(N)=O)CC2)ccc1-n1c(-c2cccnc2N)nc2ccc(-c3ccccc3)nc21` [Compound I-142, trans-N-(5-(2-(2-aminopyridin-3-yl)-5-phenyl-3H-imidazo[4,5-b]pyridin-3-yl)-6-methylpyridin-2-yl)cyclohexane-1,4-dicarboxamide], the IC50 [1] is reported as 0.5 to 2 µM and the IC50 [2] is reported as < 20 µM.
For `CC(C)C([C@H]1CC[C@H](C(=O)O)CC1)N1CC(c2ccc(-n3c(-c4cccnc4N)nc4ccc(-c5ccccc5)nc43)cc2)C1` (stereo partly drawn) [Compound I-143], the IC50 [1] was 0.5 to 2 µM and the IC50 [2] was < 20 µM.
With `Nc1ncccc1-c1nc2ccc(-c3ccccc3)nc2n1-c1ccc(C2CN(CC34CCC(C(=O)O)(CC3)CC4)C2)cc1` [Compound I-146] the IC50 [1] was < 0.5 µM and the IC50 [2] was < 20 µM.
`CC1(C)C[C@H](CN2CC(c3ccc(-n4c(-c5cccnc5N)nc5ccc(-c6ccccc6)nc54)cc3)C2)CC(C)(C)[C@H]1C(=O)O` [Compound I-147] was tested, and the IC50 [1] was < 0.5 µM and the IC50 [2] was < 20 µM.
For `CC1(C)C[C@H](CN2CC(c3ccc(-n4c(-c5cccnc5N)nc5ccc(-c6ccccc6)nc54)cc3)C2)CC(C)(C)[C@@H]1C(=O)O` [Compound I-148], the IC50 [1] was < 0.5 µM and the IC50 [2] was < 20 µM.
`Nc1ncccc1-c1nc2ccc(-c3ccccc3)nc2n1-c1ccc(C2CN(C[C@H]3CC4CC3CC4C(=O)O)C2)cc1` (stereo partly drawn) [Compound I-149] was tested, and the IC50 [1] was < 0.5 µM and the IC50 [2] was < 20 µM.
